Tests used:
Assay type in all cases: biochemical
[1] = biological target: T1, recombinant human DAO (diamine oxidase) (Homo sapiens, UniProt P19801); experiment: Activity on recombinant human DAO, method similar to the VAP-1 assay; details: substrate 1 mM putrescine; read-out: Inhibitory Activity (IC50, nM) DAO
T1 construct: purchased R&D systems
T1 sequence (P19801 20-751): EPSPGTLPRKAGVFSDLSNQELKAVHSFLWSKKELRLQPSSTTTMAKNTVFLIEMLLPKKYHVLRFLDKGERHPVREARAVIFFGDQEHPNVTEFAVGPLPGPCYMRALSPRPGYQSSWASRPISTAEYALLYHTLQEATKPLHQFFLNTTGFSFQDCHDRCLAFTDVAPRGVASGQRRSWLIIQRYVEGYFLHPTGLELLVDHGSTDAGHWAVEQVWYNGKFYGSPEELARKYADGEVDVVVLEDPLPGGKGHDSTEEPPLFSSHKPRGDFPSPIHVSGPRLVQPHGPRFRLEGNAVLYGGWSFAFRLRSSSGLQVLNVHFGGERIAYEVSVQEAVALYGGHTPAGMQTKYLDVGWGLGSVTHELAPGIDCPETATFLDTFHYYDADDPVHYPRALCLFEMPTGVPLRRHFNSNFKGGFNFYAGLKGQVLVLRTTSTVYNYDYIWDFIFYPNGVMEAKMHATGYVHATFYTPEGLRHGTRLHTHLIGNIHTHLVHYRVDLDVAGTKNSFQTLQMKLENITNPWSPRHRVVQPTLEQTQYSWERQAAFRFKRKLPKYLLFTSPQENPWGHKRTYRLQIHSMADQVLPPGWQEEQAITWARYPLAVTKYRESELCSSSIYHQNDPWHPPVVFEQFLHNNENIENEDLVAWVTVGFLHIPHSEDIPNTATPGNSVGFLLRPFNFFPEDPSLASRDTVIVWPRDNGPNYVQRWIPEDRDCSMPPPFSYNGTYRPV
Summary of the method: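 Inhibition of recombinant human diamine oxidase (DAO, R&D systems) was assessed by the same approach as the VAP-1 assay, using 1 mM putrescine as substrate. Hydrogen peroxide formed was detected through an HRP-coupled Amplex Red reaction yielding fluorescent resorufin, read at 544 nm excitation and 590 nm emission. IC50 values came from four-parameter logistic fitting in GraphPad Prism.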

[2] = biological target: T2, recombinant human MAO-B (monoamine oxidase-B) (Homo sapiens, UniProt P27338); experiment: Activity on recombinant human MAO-B, method similar to the VAP-1 assay; details: substrate 1 mM benzylamine; read-out: Inhibitory Activity (IC50, nM) MAO-B
T2 construct: purchased Sigma-Aldrich
T2 sequence (P27338 1-520): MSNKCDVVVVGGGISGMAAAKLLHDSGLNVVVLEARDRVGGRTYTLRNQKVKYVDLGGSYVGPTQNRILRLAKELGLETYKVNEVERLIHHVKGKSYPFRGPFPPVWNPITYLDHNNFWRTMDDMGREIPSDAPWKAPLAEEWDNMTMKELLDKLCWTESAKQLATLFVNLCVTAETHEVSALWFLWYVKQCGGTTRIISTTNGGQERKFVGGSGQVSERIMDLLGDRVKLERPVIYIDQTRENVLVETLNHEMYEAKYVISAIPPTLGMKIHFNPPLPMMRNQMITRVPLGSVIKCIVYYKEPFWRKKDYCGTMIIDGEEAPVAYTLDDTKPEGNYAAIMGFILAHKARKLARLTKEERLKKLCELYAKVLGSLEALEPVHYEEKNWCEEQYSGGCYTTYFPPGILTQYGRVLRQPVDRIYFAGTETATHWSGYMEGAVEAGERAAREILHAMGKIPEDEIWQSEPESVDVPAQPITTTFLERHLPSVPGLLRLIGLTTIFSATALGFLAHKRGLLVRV
Summary of the method: (§1)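 Amplex Red/HRP coupled read-out of H2O2 with 0.5 mM tyramine for MAO-A or 1 mM benzylamine for MAO-B, following a 30-min compound–enzyme preincubation at 37° C. IC50 from percent inhibition of signal rate relative to uninhibited control.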

[3] = biological target: T3, recombinant human MAO-A (monoamine oxidase-A) (Homo sapiens, UniProt P21397); experiment: Activity on recombinant human MAO-A, method similar to the VAP-1 assay; details: substrate 0.5 mM tyramine; read-out: Inhibitory Activity (IC50, nM) MAO-A
T3 construct: purchased Sigma-Aldrich
T3 sequence (P21397 1-527): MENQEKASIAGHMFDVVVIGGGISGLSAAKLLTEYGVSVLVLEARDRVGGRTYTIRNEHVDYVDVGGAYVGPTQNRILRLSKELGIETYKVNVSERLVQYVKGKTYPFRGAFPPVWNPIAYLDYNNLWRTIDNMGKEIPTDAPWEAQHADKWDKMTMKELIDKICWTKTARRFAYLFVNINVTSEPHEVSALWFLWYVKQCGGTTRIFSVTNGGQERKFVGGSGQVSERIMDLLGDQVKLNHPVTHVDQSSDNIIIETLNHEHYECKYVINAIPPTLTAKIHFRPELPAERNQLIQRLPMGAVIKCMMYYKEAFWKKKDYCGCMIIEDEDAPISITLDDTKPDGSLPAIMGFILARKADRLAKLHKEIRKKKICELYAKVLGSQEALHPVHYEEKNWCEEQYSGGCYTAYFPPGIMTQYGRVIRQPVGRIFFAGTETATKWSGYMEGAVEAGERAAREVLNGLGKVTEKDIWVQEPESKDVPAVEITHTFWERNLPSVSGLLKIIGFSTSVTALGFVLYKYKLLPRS
Summary of the method: as §1

[4] = biological target: T4, recombinant human VAP-1 (Homo sapiens, UniProt Q16853); experiment: Activity on recombinant human VAP-1, HRP-coupled Amplex Red hydrogen peroxide assay; details: substrate 1 mM benzylamine; compound incubated with enzyme at 37° C. for 30 minutes; pH 7.4; read-out: Inhibitory Activity (IC50, nM) human VAP-1
T4 construct: purchased R&D systems
T4 sequence (Q16853 1-763): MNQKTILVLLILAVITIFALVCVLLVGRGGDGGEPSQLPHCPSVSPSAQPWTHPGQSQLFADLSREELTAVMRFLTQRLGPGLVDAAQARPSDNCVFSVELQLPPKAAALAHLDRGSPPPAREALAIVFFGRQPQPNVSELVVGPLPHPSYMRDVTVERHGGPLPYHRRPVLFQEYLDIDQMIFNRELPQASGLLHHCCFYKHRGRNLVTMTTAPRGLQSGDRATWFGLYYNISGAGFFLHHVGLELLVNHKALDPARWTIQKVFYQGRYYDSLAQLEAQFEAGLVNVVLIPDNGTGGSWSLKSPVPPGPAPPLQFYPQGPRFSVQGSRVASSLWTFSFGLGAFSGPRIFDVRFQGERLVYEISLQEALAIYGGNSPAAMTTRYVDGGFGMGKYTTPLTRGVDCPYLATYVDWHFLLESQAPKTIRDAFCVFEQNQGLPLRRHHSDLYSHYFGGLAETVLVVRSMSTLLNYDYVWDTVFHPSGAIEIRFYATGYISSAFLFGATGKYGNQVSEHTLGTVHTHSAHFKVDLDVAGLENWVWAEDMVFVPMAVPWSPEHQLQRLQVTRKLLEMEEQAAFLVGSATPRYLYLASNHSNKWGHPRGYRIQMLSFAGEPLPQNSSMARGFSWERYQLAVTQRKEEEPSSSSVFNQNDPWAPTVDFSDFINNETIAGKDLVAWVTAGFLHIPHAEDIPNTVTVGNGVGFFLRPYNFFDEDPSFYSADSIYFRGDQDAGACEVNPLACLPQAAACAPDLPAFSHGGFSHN
Summary of the method: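 Dose-response IC50 determined from reduction in resorufin signal rate (544/590 nm, 1-2 h), with 30 min compound preincubation at 37 °C and 1 mM benzylamine as substrate.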

Structure (SMILES)	IC50 [1] [nM]	IC50 [2] [nM]	IC50 [3] [nM]	IC50 [4] [nM]
CCn1cc(-c2ccc3sc(Cn4cnn(C/C(=C/F)CN)c4=O)cc3c2)cn1 [Example 214, 2-[(2E)-2-(aminomethyl)-3-fluoroprop-2-en-1-yl]-4-{[5-(1-ethyl-1H-pyrazol-4-yl)-1-benzothiophen-2-yl]methyl}-2,4-dihydro-3H-1,2,4-triazol-3-one]	1400	2200	> 100000	1.6
NC/C(=C\F)Cn1ncn(CCc2ccc(-c3ccc4c(c3)OCO4)s2)c1=O [Example 215, 2-[(2E)-2-(aminomethyl)-3-fluoroprop-2-en-1-yl]-4-{2-[5-(1,3-benzodioxol-5-yl)thiophen-2-yl]ethyl}-2,4-dihydro-3H-1,2,4-triazol-3-one]	380	310	> 100000	1.3
CS(=O)(=O)c1ccc(-c2ccc(CCn3cnn(C/C(=C/F)CN)c3=O)s2)cc1 [Example 216, 2-[(2E)-2-(aminomethyl)-3-fluoroprop-2-en-1-yl]-4-(2-{5-[4-(methylsulfonyl)phenyl]thiophen-2-yl}ethyl)-2,4-dihydro-3H-1,2,4-triazol-3-one]	68	37000	> 100000	0.5
NC/C(=C\F)Cn1ncn(CCc2ccc(-c3ccc(C(F)(F)F)nc3)s2)c1=O [Example 217, 2-[(2E)-2-(aminomethyl)-3-fluoroprop-2-en-1-yl]-4-(2-{5-[6-(trifluoromethyl)pyridin-3-yl]thiophen-2-yl}ethyl)-2,4-dihydro-3H-1,2,4-triazol-3-one]	61	6900	> 100000	0.7
Cc1cc(-c2ccc(CCn3cnn(C/C(=C/F)CN)c3=O)s2)cc2c1NC(=O)CC2 [Example 218, 6-[5-(2-{1-[(2E)-2-(aminomethyl)-3-fluoroprop-2-en-1-yl]-5-oxo-1,5-dihydro-4H-1,2,4-triazol-4-yl}ethyl)thiophen-2-yl]-8-methyl-3,4-dihydroquinolin-2(1H)-one]	200	76000	> 100000	0.7
CN1C(=O)CCc2cc(-c3ccc(CCn4cnn(C/C(=C/F)CN)c4=O)s3)ccc21 [Example 219, 6-[5-(2-{1-[(2E)-2-(aminomethyl)-3-fluoroprop-2-en-1-yl]-5-oxo-1,5-dihydro-4H-1,2,4-triazol-4-yl}ethyl)thiophen-2-yl]-1-methyl-3,4-dihydroquinolin-2(1H)-one]	120	38000	> 100000	0.5
CN(C)c1ccc(-c2ccc(CCn3cnn(C/C(=C/F)CN)c3=O)s2)cn1 [Example 220, 2-[(2E)-2-(aminomethyl)-3-fluoroprop-2-en-1-yl]-4-(2-{5-[6-(dimethylamino)pyridin-3-yl]thiophen-2-yl}ethyl)-2,4-dihydro-3H-1,2,4-triazol-3-one]	520	25000	> 100000	0.7
NC/C(=C\F)Cn1ncn(CCc2ccc(-c3ccc(N4CCNCC4)cc3)s2)c1=O [Example 221, 2-[(2E)-2-(aminomethyl)-3-fluoroprop-2-en-1-yl]-4-(2-{5-[4-(piperazin-1-yl)phenyl]thiophen-2-yl}ethyl)-2,4-dihydro-3H-1,2,4-triazol-3-one]	1420	> 100000	> 100000	1.8
CCn1cc(-c2ccc(CCn3cnn(C/C(=C/F)CN)c3=O)s2)cn1 [Example 222, 2-[(2E)-2-(aminomethyl)-3-fluoroprop-2-en-1-yl]-4-{2-[5-(1-ethyl-1H-pyrazol-4-yl)thiophen-2-yl]ethyl}-2,4-dihydro-3H-1,2,4-triazol-3-one]	890	38000	> 100000	0.7
